“And” between values parts separate entries of the source, which are not always exact repeats. Equal values may be shown once. “Also recorded” adds a separate entry of the source.
How the values were obtained:
[1] = test system: HIV-1 reverse transcriptase Y188C (Y188C-RTV); test: Phenotypic susceptibility assay, site directed mutant Y188C-RTV; format: cell-based; settings: >1 loss of susceptibility
Protocol: (§1) Resistance tests were carried out with resistance test vectors using two host cell types. Resistance test vector viral particles were produced by a first host cell (the resistance test vector host cell) that was prepared by transfecting a packaging host cell with the resistance test vector and the packaging expression vector. The resistance test vector viral particles were then used to infect a second host cell (the target host cell) in which the expression of the indicator gene is measured.
(§2) The resistance test vectors containing a functional luciferase gene cassette were constructed and host cells were transfected with the resistance test vector DNA. The resistant test vectors contained patient-derived reverse transcriptase and protease sequences that were either susceptible or resistant to the antiretroviral agents, such as nucleoside reverse transcriptase inhibitors, non-nucleoside reverse transcriptase inhibitors and protease inhibitors. The resistance test vector viral particles produced by transfecting the resistance test vector DNA into host cells, either in the presence or absence of protease inhibitors, were used to infect target host cells grown either in the absence of NRTI or NNRTI or in the presence of increasing concentrations of the drug. […] The IC50 values were determined by plotting percent drug inhibition vs. log10 drug concentration.
(§3) Host cells were seeded in 10-cm-diameter dishes and were transfected several days after plating with resistance test vector plasmid DNA and the envelope expression vector. […] HIV capsid protein (p24) levels in the harvested cell culture media were determined by an EIA method as described by the manufacturer (SIAC; Frederick, Md.). […] The inhibitory effect of the drug was determined using the following equation: % luciferase inhibition=1-(RLUluc[drug]÷RLUluc)×100 where RLUluc [drug] is the relative light unit of luciferase activity in infected cells in the presence of drug and RLUluc is the Relative Light Unit of luciferase activity in infected cells in the absence of drug. […]

[2] = test system: HIV-1 reverse transcriptase P236L (P236L-RTV); test: Phenotypic susceptibility assay, site directed mutant P236L-RTV; format: cell-based; settings: P236L alone versus wild type reference RTV
Protocol: (§4) Transfections were performed using a calcium-phosphate precipitation procedure. […] Cell lysates were assayed for luciferase activity (FIG. 3). […] The drug inhibition curves are shown in (FIG. 3).
Resistance test vectors were constructed containing the P236L mutation alone and in combination with other known drug resistance mutations (K103N, Y181C) that are known to modulate the susceptibility of HIV-1 to NNRTIs. […] The P236L mutation was also introduced into a RTV containing mutations at K103N, Y181C or both (K103N+Y181C).

[3] = test system: HIV-1 reverse transcriptase V106A + F227L (V106A-F227-RTV); test: Phenotypic susceptibility assay, site directed mutant V106A-F227-RTV; format: cell-based; settings: >1 loss of susceptibility
Protocol: as §1, §2, §3

[4] = test system: HIV-1 reverse transcriptase K103N (K103N-RTV); test: Phenotypic susceptibility assay, site directed mutant K103N-RTV; format: cell-based; settings: for change in susceptibility / resistance: K103N mutation; for fold change in susceptibility compared to wild type control RTV: K103N-RTV, >1 loss of susceptibility
Protocol: as §1
(§5) The resistance test vectors containing a functional luciferase gene cassette were constructed and host cells were transfected with the resistance test vector DNA. The resistant test vectors contained patient-derived reverse transcriptase and protease sequences that were either susceptible or resistant to the antiretroviral agents, such as nucleoside reverse transcriptase inhibitors, non-nucleoside reverse transcriptase inhibitors and protease inhibitors. The resistance test vector viral particles produced by transfecting the resistance test vector DNA into host cells, either in the presence or absence of protease inhibitors, were used to infect target host cells grown either in the absence of NRTI or NNRTI or in the presence of increasing concentrations of the drug. The amount of luciferase activity produced in infected target host cells in the presence of drug was compared to the amount of luciferase produced in infected target host cells in the absence of drug. Drug resistance was measured as the amount of drug required to inhibit by 50% the luciferase activity detected in the absence of drug (inhibitory concentration 50%, IC50). The IC50 values were determined by plotting percent drug inhibition vs. log10 drug concentration.
Host cells were seeded in 10-cm-diameter dishes and were transfected several days after plating with resistance test vector plasmid DNA and the envelope expression vector. Transfections were performed using a calcium-phosphate precipitation procedure. The cell culture media containing the DNA precipitate was replaced with fresh medium, from one to 24 hours, after transfection. Cell culture media containing resistance test vector viral particles was harvested one to four days after transfection and was passed through a […] filter before being stored at −80° C. HIV capsid protein (p24) levels in the harvested cell culture media were determined by an EIA method as described by the manufacturer (SIAC; Frederick, Md.). Before infection, target cells (293 and 293/T) were plated in cell culture media. Control infections were performed using cell culture media from mock transfections (no DNA) or transfections containing the resistance test vector plasmid DNA without the envelope expression plasmid. One to three or more days after infection the media was removed and cell lysis buffer (Promega) was added to each well. […] The inhibitory effect of the drug was determined using the following equation: % luciferase inhibition=1-(RLUluc[drug]÷RLUluc)×100 where RLUluc [drug] is the relative light unit of luciferase activity in infected cells in the presence of drug and RLUluc is the Relative Light Unit of luciferase activity in infected cells in the absence of drug. IC50 values were obtained from the sigmoidal curves that were generated from the data by plotting the percent inhibition of luciferase activity vs. the log10 drug concentration. […]

[5] = test system: HIV-1 reverse transcriptase K101E + G190A (K101E-G190A-RTV); test: Phenotypic susceptibility assay, site directed mutant K101E-G190A-RTV; format: cell-based; settings: >1 loss of susceptibility
Protocol: as §1, §2, §3

[6] = test system: HIV-1 reverse transcriptase E138A + Y188L (E138A-Y188L-RTV); test: Phenotypic susceptibility assay, site directed mutant E138A-Y188L-RTV; format: cell-based; settings: >1 loss of susceptibility
Protocol: as §1, §2, §3

[7] = test system: HIV-1 reverse transcriptase K101E + G190S (K101E-G190S-RTV); test: Phenotypic susceptibility assay, site directed mutant K101E-G190S-RTV; format: cell-based
Protocol: as §1, §5
Host cells were seeded in 10-cm-diameter dishes and were transfected several days after plating with resistance test vector plasmid DNA and the envelope expression vector. Transfections were performed using a calcium-phosphate precipitation procedure. The cell culture media containing the DNA precipitate was replaced with fresh medium, from one to 24 hours, after transfection. Cell culture media containing resistance test vector viral particles was harvested one to four days after transfection and was passed through a […] filter before being stored at −80° C. HIV capsid protein (p24) levels in the harvested cell culture media were determined by an EIA method as described by the manufacturer (SIAC; Frederick, Md.). Before infection, target cells (293 and 293/T) were plated in cell culture media. Control infections were performed using cell culture media from mock transfections (no DNA) or transfections containing the resistance test vector plasmid DNA without the envelope expression plasmid. One to three or more days after infection the media was removed and cell lysis buffer (Promega) was added to each well. […] The inhibitory effect of the drug was determined using the following equation: % luciferase inhibition=1-(RLUluc[drug]÷RLUluc)×100 where RLUluc [drug] is the relative light unit of luciferase activity in infected cells in the presence of drug and RLUluc is the Relative Light Unit of luciferase activity in infected cells in the absence of drug. IC50 values were obtained from the sigmoidal curves that were generated from the data by plotting the percent inhibition of luciferase activity vs. the log10 drug concentration.
Mutations may be incorporated alone and/or in combination with other known drug resistance mutations that are thought to modulate the susceptibility of HIV to a certain drug or class of drugs. Mutations are introduced into the resistance test vector through any of the widely known methods for site-directed mutagenesis. In one embodiment of this invention the mega-primer PCR method for site-directed mutagenesis is used.

[8] = test system: HIV-1 reverse transcriptase P225H (P225H-RTV); test: Phenotypic susceptibility assay, site directed mutant P225H-RTV; format: cell-based; settings: P225H alone versus wild type control RTV
Protocol: as §4
Resistance test vectors were constructed containing the P225H mutation alone and in combination with other known drug resistance mutations (K103N, Y181C) known to modulate the HIV susceptibility to NNRTIs. […] (Sakar G and Sommar S S (1994) Biotechniques 8(4), 404-407). […] The P225H mutation was also introduced into a RTV containing additional mutations at K103N, Y181C or both (K103N+Y181C).

[9] = test system: T66I integrase site-directed mutant; test: Phenotypic susceptibility assay, integrase T66I mutated resistance test vector; format: cell-based, HIV; settings: {}
Protocol: as §4
A resistance test vector containing the threonine to isoleucine mutation at position 66 of the integrase protein (T66I) was constructed and tested using the phenotypic assay described earlier.

[10] = test system: RTV-B clone 1 (RT A98G, G190S); test: Phenotypic susceptibility assay, RTV-B clone 1 (patient B); format: cell-based, HIV-1; settings: >1 loss, <1 increased susceptibility
Protocol: as §1, §2, §3

[11] = test system: HIV-1 reverse transcriptase V106A (V106A-RTV); test: Phenotypic susceptibility assay, site directed mutant V106A-RTV; format: cell-based; settings: >1 loss of susceptibility
Protocol: as §1, §2, §3

[12] = test system: HIV-1 reverse transcriptase Y188L (Y188L-RTV); test: Phenotypic susceptibility assay, site directed mutant Y188L-RTV; format: cell-based; settings: >1 loss of susceptibility
Protocol: as §1, §2, §3

[13] = test system: HIV-1 reverse transcriptase Y181I (Y181I-RTV); test: Phenotypic susceptibility assay, site directed mutant Y181I-RTV; format: cell-based; settings: >1 loss of susceptibility
Protocol: as §1, §2, §3

[14] = test system: HIV-1 reverse transcriptase Y181C (Y181C-RTV); test: Phenotypic susceptibility assay, site directed mutant Y181C-RTV; format: cell-based; settings: for resistance profile: Y181C site directed mutant, FIG. 5
Protocol: as §1, §2, §3

[15] = test system: RTV-1033 patient virus (RT V106A, V189L, F227L); test: Phenotypic susceptibility assay, RTV-1033 (patient 98-1033); format: cell-based, HIV-1
Protocol: as §4

[16] = >1 loss, <1 increased susceptibility

Cc1ccnc2c1NC(=O)c1cccnc1N2C1CC1 [nevirapine]
fold change in susceptibility compared to wild type control RTV [1]: 30 fold
change in susceptibility [2]: no significant change; also recorded: little or no reduction
fold change in susceptibility compared to wild type control RTV [3]: greater than 800 fold
change in susceptibility / resistance [4]: reduced susceptibility; also recorded: resistance
fold change in susceptibility compared to wild type control RTV [4]: 55 fold
fold change in susceptibility compared to wild type control RTV [5]: greater than 800 fold
fold change in susceptibility compared to wild type control RTV [6]: greater than 800 fold
fold change in susceptibility compared to wild type control RTV ([7]; >1 loss of susceptibility): greater than 800 fold
fold change in susceptibility compared to wild type control RTV [7, 16]: 75 fold
change in susceptibility [8]: No significant change; also recorded: little or no change
increase in susceptibility compared to wild type control RTV [9]: 8 to 10 fold
fold change in susceptibility [10]: 640 fold
fold change in susceptibility compared to wild type control RTV [11]: 60 fold
fold change in susceptibility compared to wild type control RTV [12]: greater than 800 fold
fold change in susceptibility compared to wild type control RTV [13]: 740 fold
resistance profile [14]: resistance
decrease in susceptibility [15]: greater than 800 fold

CC(C)Nc1cccnc1N1CCN(C(=O)c2cc3cc(NS(C)(=O)=O)ccc3[nH]2)CC1 [delavirdine]
fold change in susceptibility compared to wild type control RTV [1]: 3 fold
change in susceptibility [2]: less susceptible; also recorded: significant reduction
fold change in susceptibility compared to wild type control RTV [3]: 3 fold
change in susceptibility / resistance [4]: reduced susceptibility; also recorded: resistance
fold change in susceptibility compared to wild type control RTV [4]: 50 fold
fold change in susceptibility compared to wild type control RTV [5]: 2 fold
fold change in susceptibility compared to wild type control RTV [6]: 75 fold
fold change in susceptibility compared to wild type control RTV ([7]; >1 loss of susceptibility): 1.4 fold
fold change in susceptibility compared to wild type control RTV [7, 16]: 0.5 fold
change in susceptibility [8]: more susceptible; also recorded: increase; also recorded: increases susceptibility
increase in susceptibility compared to wild type control RTV [9]: 8 to 10 fold
fold change in susceptibility [10]: 0.55 fold
fold change in susceptibility compared to wild type control RTV [11]: 5 fold
fold change in susceptibility compared to wild type control RTV [12]: 9 fold
fold change in susceptibility compared to wild type control RTV [13]: 20 fold
resistance profile [14]: resistance
decrease in susceptibility [15]: 30 fold

O=C1Nc2ccc(Cl)cc2[C@@](C#CC2CC2)(C(F)(F)F)O1 [efavirenz]
fold change in susceptibility compared to wild type control RTV [1]: 20 fold
change in susceptibility [2]: no effect
fold change in susceptibility compared to wild type control RTV [3]: 8 fold
fold change in susceptibility compared to wild type control RTV [4]: 30 fold
fold change in susceptibility compared to wild type control RTV [5]: 120 fold
fold change in susceptibility compared to wild type control RTV [6]: 88 fold
fold change in susceptibility compared to wild type control RTV ([7]; >1 loss of susceptibility): greater than 250 fold
fold change in susceptibility compared to wild type control RTV [7, 16]: 7.6 fold
change in susceptibility [8]: little or no change
increase in susceptibility compared to wild type control RTV [9]: 8 to 10 fold
fold change in susceptibility [10]: 250 fold
fold change in susceptibility compared to wild type control RTV [11]: 1.7 fold
fold change in susceptibility compared to wild type control RTV [12]: 109 fold and 110 fold
fold change in susceptibility compared to wild type control RTV [13]: 1.4 fold
fold change in susceptibility compared to wild type control RTV ([14]; Y181C-RTV, >1 loss of susceptibility): 3 fold and 4 fold
decrease in susceptibility [15]: 200 fold
